These results are taken from patent US20240131004A1, “FUNCTIONALIZED 1,3-BENZENE DIOLS AND THEIR METHOD OF USE FOR THE TREATMENT OF INFLAMMATION AND PAIN” (KANNALIFE SCIENCES, INC., priority 2021, published 2024).

In data set [1] the test system is cultures of the central and peripheral nervous system. The note with it: Kinney 2016; Brenneman 2018, 2019; US 9,611,213; US 10,004,722; cited from earlier work.
In another data set the target is T1, human GPR55 (Homo sapiens, UniProt Q9Y2T6).
T1 construct: host or cells: CHO-K1
T1 sequence (Q9Y2T6 whole entry): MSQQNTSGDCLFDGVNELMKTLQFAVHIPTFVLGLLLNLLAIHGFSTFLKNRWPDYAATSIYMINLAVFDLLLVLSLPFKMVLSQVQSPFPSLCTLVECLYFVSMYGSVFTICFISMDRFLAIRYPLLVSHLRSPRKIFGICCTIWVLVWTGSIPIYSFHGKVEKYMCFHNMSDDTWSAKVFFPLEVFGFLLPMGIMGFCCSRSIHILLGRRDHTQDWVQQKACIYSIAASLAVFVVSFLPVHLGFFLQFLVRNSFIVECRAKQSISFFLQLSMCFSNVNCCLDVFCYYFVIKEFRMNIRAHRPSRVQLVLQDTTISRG
In words: PathHunter β-arrestin assay, human GPR55 in CHO-K1 cell line. It counts as cell-based. As to the method:
In this assay, agonist-induced activation of GPR55 stimulates binding of β-arrestin to the Pro-link-tagged GPCR and forces complementation of two enzyme fragments, resulting in the formation of an active β-galactosidase enzyme. This interaction leads to an increase in enzyme activity that can be measured using chemiluminescent PathHunter detection reagents. For our application, the GPR55 agonist lysophosphatidylinositol (LPI) was tested from 0.1 nM to 30 μM to increase the relative luminescent signal relative to that of control. […] For the GPR55 antagonism assay, KLS-13019 concentrations ranging from 0.1 nM to 30 μM were tested in the presence of 16 μM LPI. Concentrations of KLS-13019 ranging from 0.1 nM to 30 μM were tested alone for possible effects of agonistic activity on β-arrestin.
A PathHunter β-arrestin assay is shown in FIG. 8 that provides a measure of an antagonist mode assessment of KLS-13019 with a human GPR55 model system (Eurofins). To measure the β-arrestin response to a GPR55 agonist, various concentrations of lysophosphatidylinositol (LPI) were used as shown in the closed circles. […] Based on these findings, 16 μM LPI was incubated with various concentrations of KLS-13019 to test for antagonistic properties (closed inverted triangles). […] All assays were conducted with an N=10.

In data set [2] the test system is GPR55. Description: Cell body GPR55 immunoreactive area in DRG neurons, paclitaxel reversal paradigm, high content imaging. It counts as cell-based, rat. As to the method: (§1) The GPR55 antibody was obtained from abcam. […] The secondary antibodies were obtained from Life Technologies.
Responses of cell body GPR55 immunoreactive areas (μ^2) of neurons from dorsal root ganglion (DRG) cultures are shown in FIG. 2 after pretreatment with 3 μM paclitaxel for 8 hours followed by 16 hours treatment with various concentrations of KLS-13019. Reference lines are provided to depict the average cell body GPR55 area for control cultures (medium dash) and that of cultures pre-treated only with 3 μM paclitaxel (dash-dot-dash) for eight hours. […] Each value is the mean of 8 determinations. […] All assays were conducted by high content fluorescence imaging (Brenneman et al., 2018 and 2019).

Data set [3] relates to dorsal root ganglion (DRG) cultures. In words: Alamar Blue cellular viability in DRG cultures, reversal of paclitaxel toxicity. Type of data set: cell-based, rat. As to the method: (§2) At the conclusion of each experiment, sister cultures to those assessed by image analysis were evaluated with either a fluorescent dye-based assays for neuronal viability (6-carboxyfluorescein diacetate, CFDA) or with viability dye Alamar Blue. The preferred dye was Alamar Blue as this assay of viability could be conducted and then the dye washed off the cultures for subsequent fixation and follow-up immunocytochemical assays. […] In addition, a portion of the reductive conversion of resazurin to the highly fluorescent resorufin in the Alamar Blue reagent is attributable to the action of mitochondrial reductases. Because of the need for enhanced sensitivity, the Alamar Blue assay was predominantly used for these studies. Similar results in assessing pharmacological responses were obtained with both assays (see Brenneman et al, 2019).
On every plate, wells without cells were used to provide a blank reading that was used to subtract background fluorescence. For the Alamar Blue viability assay, 10 ul of the dye was added directly to the culture well that contained 100 ul of nutrient medium (Ivanov et al., 2016). Incubation times with the dye ranged from 1-5 hrs., depending on the experimental goals. Fluorescence was measured at an excitation of 530 nm and an emission of 590 on a Cytofluor plate reader.
Referring to FIG. 1, cellular viability, as measured with the viability dye Alamar Blue, is shown with relative fluorescence units (RFU) in dorsal root ganglion (DRG) cultures after treatment with 3 μM paclitaxel for 8 hours followed by 16 hours treatment with various concentrations of KLS-13019. Reference lines are provided to depict the RFU levels for control cultures (medium dash) and cultures pre-treated only with 3 μM paclitaxel (dash-dot-dash) for eight hours. […] To confirm, all treated cultures were continuously exposed to paclitaxel throughout the 24-hour duration of the experiment. […] Each value is the mean of 6 determinations.

The subject of the next data set is interleukin-1β (IL-1β). Description: Interleukin-1β immunoreactive area in cell bodies and neurites of DRG neurons, paclitaxel reversal paradigm. Type of data set: cell-based, rat. The protocol:
as §1
(§3) Responses of interleukin-1β (IL-1β) immunoreactive (IR) areas (μ^2) in cell bodies (open circles) and neurites (closed circles) of rat DRG neurons from dissociated cultures are shown in FIG. 4 after pre-treatment with 3 μM paclitaxel for 8 hours followed by 16 hours treatment with various concentrations of KLS-13019. Reference lines are provided to depict the average cell body IL-1β area (medium dash) and neurites IL-1β (dash-dot-dash) from control cultures. The zero-concentration data point on both curves depicts values for cultures treated only with 3 μM paclitaxel. […] To confirm, all treated cultures were continuously exposed to paclitaxel throughout the 24-hour duration of the experiment. […] Each value is the mean of 8 determinations. […] All assays were conducted by high content fluorescence imaging (Brenneman et al., 2018 and 2019).

The test system of data set [4] is GPR55. Description: Neuritic GPR55 immunoreactive area in DRG cultures, 6 h co-treatment with LPIA. Type of data set: cell-based, rat. From the text:
Because of the recognized importance of sensory neurons in DRG to transmitting peripheral nociception (Krames, 2014) and the reported accumulation of paclitaxel in DRG from models of CIPN (Duggett et al., 2016), the preparation of choice for the in vitro studies to study protection and anti-inflammation was dissociated cultures from rat DRG. DRG cultures derived from embryonic day 18 rats were employed as the primary assay system to study KLS-13019-properties. In brief, DRG were obtained commercially through Brain Bits (Springfield, IL) and cultures prepared with slight modifications to methods previously described (Brenneman et al., 2019). Tissue was dissociated with a papain-based kit from Worthington Biochemical Corporation (Lakewood, NJ). The DRG cells were plated at low density (10,000 cells/well) in a 96-well format and maintained in serum-free medium consisting of Neurobasal Medium supplemented with B27, GlutaMAX (Gibco) and 25 ng/ml Nerve Growth Factor. Poly-D-lysine coated plates (BD Biosciences, Franklin Lakes, NJ) were employed for this culture system. Prior to the initiation of experiments between days 5 and 9 in vitro, a complete change of medium was performed in a working volume of 100 μL.
To assess all antibody-based assays, immunocytochemical methods were employed. The goals for these assays included: 1) to assess the immunoreactive area of our molecular targets (IL-1β, IL-6, GPR55, NLRPA3) with their respective primary antibodies and distinctively labeled secondary antibodies; and 2) to compare the relative responses in both neuronal cell bodies and neurites. Prior to fixation, growth medium was removed and the wells were rinsed one time with 100 μL of DPBS (37° C.). This warm rinse is particularly important to maintain structural stability of neurites. After removal of the DPBS, cultures were fixed for 20 min at room temperature with 50 μL/well of 3.5% formaldehyde (Sigma-Aldrich: 252549) in warm (37° C.) DPBS that contained 5.5 μg/mL of Hoechst 33342 dye (Invitrogen: H3570) to label cell nuclei. […]

For another data set, the system named is NLRP3. Description: Neuritic NLRP3 immunoreactive spot area in hippocampal neurons, LPIA reversal paradigm. It counts as cell-based, rat. From the text:
Tissue was dissociated with a papain-based kit from Worthington Biochemical Corporation (Lakewood, NJ).
To assess all antibody-based assays, immunocytochemical methods were employed. The goals for these assays included: 1) to assess the immunoreactive area of our molecular targets (IL-1β, IL-6, GPR55, NLRPA3) with their respective primary antibodies and distinctively labeled secondary antibodies; and 2) to compare the relative responses in both neuronal cell bodies and neurites. Prior to fixation, growth medium was removed and the wells were rinsed one time with 100 μL of DPBS (37° C.). This warm rinse is particularly important to maintain structural stability of neurites. After removal of the DPBS, cultures were fixed for 20 min at room temperature with 50 μL/well of 3.5% formaldehyde (Sigma-Aldrich: 252549) in warm (37° C.) DPBS that contained 5.5 μg/mL of Hoechst 33342 dye (Invitrogen: H3570) to label cell nuclei. After removal of the fixative, the cultures were rinsed twice with 100 μL of DPBS and then a permeabilization/blocking buffer containing 5% normal goat serum and 0.3% triton-X100 in DPBS was added to the cultures for 10 min. After removal of the blocking buffer, the cultures were rinsed twice with 100 μL of DPBS and then primary antibodies were added for one-hour incubation at room temperature. Neurons were identified with antiserum to type III beta tubulin (tuj 1) to measure changes in all neuronal parameters. The primary antiserum employed was rabbit anti-rat obtained from Sigma-Aldrich (T2200) and used at 1:200 dilution. The secondary was an Alexa Fluor 488-conjugated Fab fragment of goat anti-rabbit IgG obtained from Life Technologies (A11070) used at 1:600.

The next data set deals with hippocampal cultures. In words: Alamar Blue cellular viability in hippocampal cultures, reversal of LPIA toxicity. It counts as cell-based, rat.
Description: Because the scope of the anti-inflammatory actions of the 1,3-benzene diols included the central nervous system as well, hippocampal cultures were also employed as they express both mNCX-1 and GPR55, the two targets that mediate protection and inflammation, respectively. […] Poly-L-lysine-coated plates (BD Biosciences, Franklin Lakes, NJ) were used because of the preferential adherence and survival of neurons on this matrix support.
as §2, with “Similar results in assessing pharmacological responses were obtained with both assays (see Brenneman et al, 2019).” left out
On every plate, wells without cells were used to provide a blank reading that was used to subtract background fluorescence. […] Fluorescence was measured at an excitation of 530 nm and an emission of 590 on a Cytofluor plate reader. […]

Another data set has as its system interleukin-6 (IL-6). In words: Interleukin-6 immunoreactive area in cell bodies and neurites of DRG neurons, paclitaxel reversal paradigm. Type of data set: cell-based, rat. As to the method:
as §1
as §3, with “Referring to FIG. 3, responses” for “Responses”, “interleukin-6 (IL-6)” for “interleukin-1β (IL-1β)”, “shown” for “shown in FIG. 4”, “pretreatment” for “pre-treatment”, “KLS -13019.” for “KLS-13019.”, “IL-6” for “IL-1β”

[5] abbreviates: 3 μM paclitaxel 8 h, then 16 h treatment.

“Also recorded” adds a separate entry of the source.

In general, EC50 refers to the concentration needed to bring the measured effect to its halfway point. For orientation: IC50 means the concentration that inhibits the measured activity by half. As for `C=C(C)[C@@H]1CCC(C)=C[C@H]1c1c(O)cc(CC2CN(C(C)=O)C2)cc1O` [KLS-13019, 1-(3-(3,5-dihydroxy-4-((1R,6R)-3-methyl-6-(prop-1-en-2-yl)cyclohex-2-enyl)benzyl)azetidin-1-yl)ethenone], the “Effect on oxidative stress and nerve cell damage in previous studies” value in data set [1] was “prevent oxidative stress and nerve cell damage”. For the same molecule, the “Agonist activity on β-arrestin, compound alone” value at human GPR55 (0.1 nM to 30 μM tested alone) is recorded as “no detectible agonist activity; also recorded: no detectible increases in β-arrestin signal”. Besides, the “Antagonism of LPI-mediated increases in β-arrestin signal” value at human GPR55 (30 μM KLS-13019 in presence of 16 μM LPI, N=10) is reported as “completely blocked”. In the data set with GPR55 [2] (setting [5]), the “Reversal of paclitaxel-induced increase in cell body GPR55 area (efficacy)” value is recorded as “fully returned to the average area of control cultures”. In addition, the EC50 in the data set on GPR55 [2] (Rattus norvegicus, DRG neuron, read-out: EC50 in reversing previously established increases in GPR55 area) was 2310 pM; in data set [3] (Rattus norvegicus, read-out: EC50 in reversing previously established paclitaxel toxicity (Alamar Blue)), 200 pM; in the data set with hippocampal cultures (Rattus norvegicus, 4 h, read-out: EC50 in reversing previously established LPIA toxicity (Alamar Blue)), 400 pM. For the same molecule, in data set [3] (3 μM paclitaxel 8 h pre-treatment, then 16 h treatment, relative to control cultures), the “Protection of DRG cells from paclitaxel toxicity (efficacy)” value is on record as “fully protect”. Further, in the data set with interleukin-1β (IL-1β) (setting [5]), the “Reversal of paclitaxel-induced increase in IL-1β IR area in cell bodies and neurites (efficacy)” value is on record as “fully restored to the average area of control cultures”. Further, the IC50 in the data set with interleukin-1β (IL-1β) (Rattus norvegicus, DRG neuron, read-out: IC50 in reversing previously established increases in IL-1β IR area) came out at 300 pM; in the data set with GPR55 [4] (Rattus norvegicus, 6 h, read-out: IC50 in preventing increases in GPR55 area), 107 ± 19 pM; with NLRP3 (Rattus norvegicus, Hippocampal neuron, 4 h, read-out: IC50 of decrease in neuritic NLRP3 area), 129 ± 43 pM; with interleukin-6 (IL-6) (Rattus norvegicus, DRG neuron, read-out: IC50 in reversing previously established increases in IL-6 IR area), 300 pM. The “Effect on LPIA-induced increase in neuritic GPR55” value in the data set with GPR55 [4] (co-treatment with 1 nM LPIA, 6 hours) was “blocked”. For the same molecule, the “NLRP3 spot areas compared with control cultures (efficacy of reversal)” value in the data set with NLRP3 (1 nM KLS-13019, equimolar to LPIA) was “not different from that of control cultures”. Also, in the data set on hippocampal cultures (1 nM LPIA 4 h, then 4 h treatment, relative to control cultures), the “Protection of hippocampal cells from LPIA toxicity (efficacy)” value is reported as “fully protect”. Further, the “Reversal of paclitaxel-induced increase in IL-6 IR area in cell bodies and neurites (efficacy)” value in the data set on interleukin-6 (IL-6) (setting [5]) is given as “fully returned to the average area of control cultures”.

On to `CC(=O)O[C@H]1C(=O)[C@@]2(C)[C@H]([C@H](OC(=O)c3ccccc3)[C@]3(O)C[C@H](OC(=O)[C@H](O)[C@@H](NC(=O)c4ccccc4)c4ccccc4)C(C)=C1C3(C)C)[C@]1(OC(C)=O)CO[C@@H]1C[C@@H]2O` [paclitaxel, reference compound], for which the “Effect of paclitaxel on cell body GPR55 immunoreactive area” value in the data set on GPR55 [2] (3 μM paclitaxel, DRG cultures) was “increases in GPR55 area”. The “Effect of paclitaxel on cellular viability of DRG cultures” value in data set [3] (3 μM paclitaxel) was “toxicity”. Further, the “Effect of paclitaxel on IL-1β IR area in cell bodies and neurites” value with interleukin-1β (IL-1β) (3 μM paclitaxel, DRG neurons) was “increases in IL-1β (IR) area”. In the data set with interleukin-6 (IL-6) (3 μM paclitaxel, DRG neurons), the “Effect of paclitaxel on IL-6 IR area in cell bodies and neurites” value is reported as “increases in IL-6 (IR) area”.
